Data on six compounds can be found in publication PMC8192900, “Label-free high-throughput screening assay for the identification of norepinephrine transporter (NET/SLC6A2) inhibitors” (Scientific Reports, 2021).

Each structure is given as a SMILES string. Where two headings read alike, the source gives them in different places.

Assay [1] relates to JumpIn-NET cells. Briefly: Effect of NET inhibitor alone on normalized Cell Index during 1 h pretreatment (xCELLigence). Format: cell-based, human. The settings on record: +dox JumpIn-NET cells; for Effect on nCI during pretreatment at highest tested concentration: 10 µM.
Assay [2] relates to JumpIn-NET cells. The experiment in a line: TRACT assay (xCELLigence impedance): substrate-induced cellular response, apparent substrate potency. The format is cell-based, human. Conditions: for Decrease of apparent potency in dox-treated compared to vehicle-treated cells: +dox vs −dox JumpIn-NET cells; for EC50: Homo sapiens.
Where [3] appears, read: doxycycline-treated (+dox) JumpIn-NET cells, 1 h pretreatment with 1 µM nisoxetine, read-out: Apparent potency pEC50 ± SEM (converted).
The mark [4] stands for this setting: vehicle-treated (−dox) JumpIn-NET cells, no nisoxetine pretreatment, net AUC first 30 min, read-out: Apparent potency pEC50 ± SEM (converted).

On to `CC(NC(C)(C)C)C(=O)c1cccc(Cl)c1.Cl` (centres unmarked) [Bupropion, bupropion hydrochloride], for which, in the assay with JumpIn-NET cells [1], the “Effect on nCI during pretreatment at highest tested concentration” value (“Effect on nCI during pretreatment” below) was “transient increase in nCI”.

With `CNCCC(Oc1ccccc1OC)c1ccccc1.Cl` (centres unmarked) [Nisoxetine, Nisoxetine hydrochloride], the “Effect on nCI during the 1 h pretreatment” value with JumpIn-NET cells [1] (1 µM) was “did not affect the nCI”. Further, in the assay with JumpIn-NET cells [1], the “Effect on nCI during pretreatment” value was “transient increase in nCI”.

In the case of `CNC[C@H](O)c1ccc(O)c(O)c1.O=C(O)C(O)C(O)C(=O)O` [EP, (−)-epinephrine (+)-bitartrate salt], the “Basal response in vehicle-pretreated cells, higher than that of NE” value with JumpIn-NET cells [2] (1 µM substrate (EC20), +dox cells, no inhibitor) is reported as “approximately 60%”. Besides, in the assay on JumpIn-NET cells [2], the “Decrease of apparent potency in dox-treated compared to vehicle-treated cells” value (“Decrease of apparent potency” for short) is on record as “decreased tenfold”. The EC50 was 501 nM with JumpIn-NET cells [2] (read-out: Apparent potency pEC50 ± SEM, doxycycline-treated (+dox) JumpIn-NET cells, 1 h pretreatment with 1 µM nisoxetine (converted)); 3980 nM in the assay on JumpIn-NET cells [2] (read-out: Apparent potency pEC50 ± SEM, doxycycline-treated (+dox) JumpIn-NET cells, no nisoxetine pretreatment (converted)); 398 nM in the assay on JumpIn-NET cells [2] (read-out: Apparent potency pEC50 ± SEM, vehicle-treated (−dox) JumpIn-NET cells, no nisoxetine pretreatment (converted), net AUC first 30 min).

For the compound `NC[C@H](O)c1ccc(O)c(O)c1.O.O=C(O)C(O)C(O)C(=O)O` [NE, L-(−)-norepinephrine (+)-bitartrate salt monohydrate], the “Decrease of apparent potency” value in the assay on JumpIn-NET cells [2] came out at […]. In addition, the EC50 in the assay with JumpIn-NET cells [2] (setting [3]) was […]; in the assay on JumpIn-NET cells [2] (doxycycline-treated (+dox) JumpIn-NET cells, no nisoxetine pretreatment, read-out: Apparent potency pEC50 ± SEM (converted)), […]; in the assay on JumpIn-NET cells [2] (vehicle-treated (−dox) JumpIn-NET cells, 1 h pretreatment with 1 µM nisoxetine, read-out: Apparent potency pEC50 ± SEM (converted)) it was […]; with JumpIn-NET cells [2] (setting [4]) it was […].

Regarding `Cl.NCCc1ccc(O)c(O)c1` [DA, dopamine hydrochloride], in the assay with JumpIn-NET cells [2], the “Decrease of apparent potency” value is listed as “twofold lower”. The EC50 with JumpIn-NET cells [2] (setting [3]) is 39800 nM; in the assay with JumpIn-NET cells [2] (setting [4]) it was 7940 nM.

With `CNCC[C@@H](Oc1ccccc1C)c1ccccc1.Cl` [Atomoxetine, atomoxetine hydrochloride], the “Effect on nCI during pretreatment” value in the assay with JumpIn-NET cells [1] is listed as “transient increase in nCI”.
